Measured values reported in patent publication US20080300221A1, “Contact Lens Care Composition” (priority 2005, published 2008).

Key:
cysts of A. castellani = assay: Susceptibility test for Acanthamoeba cysts (viable cells on non-nutrient agar plates after soaking in contact lens solution); type: cell-based, A. castellanii; set-up: key: +: viable cells; −: no viable cells; details: after 8 hours soaking; 10^3 cysts; plates incubated at 30° C. for 14 days; Miltefosine alone tested at 80 μM
Procedure: The activity of various multi-purpose contact lens solutions (for cleaning, rinsing, storing and disinfecting a contact lens while the lens is not worn) was tested against cysts of A. castellani.
Contact lens disinfection solutions tested (Table 1) were purchased from local retail stores. In case of the H2O2 based systems, neutralization of the 3% hydrogen peroxide is achieved within 6 hours by a catalytic platinum disk which is located in the contact lens storage case according to the manufacturer's instructions. Miltefosine was dissolved in 5% Ethanol (2 mM stock solution) and tested at 80 μM in Acanthamoeba medium (PYG) or in contact lens disinfection medium.
A. castellanii, was isolated from a patient suffering from a severe Acanthamoeba keratitis. Isolation was achieved by inoculating corneal epithelium onto non-nutrient agar plates covered with a 48-h-old culture of Escherichia coli. The isolate was cloned by transferring a single cyst onto a fresh plate with a micromanipulator. Axenisation was achieved by harvesting cysts from parallel cultures and incubating them in 3% HCl overnight in order to eliminate coexisting bacteria. […] The cysts were harvested by centrifugation (500 g/7 minutes), resuspended in sterile 0.9% NaCl and counted in a BurkerTurk haemocytometer. […]

Acanthamoeba = details: cited from earlier work

CCCCCCCCCCCCCCCCOP(=O)([O-])OCC[N+](C)(C)C [Miltefosine, 1-hexadecylphosphorylcholine]
Viable Acanthamoeba cells after disinfection with commercially available disinfectants (cysts of A. castellani): −

[H]/N=C(\N/C(=N/[H])NCCCCCCNC(=N)NC(=N)Nc1ccc(Cl)cc1)Nc1ccc(Cl)cc1 [chlorhexidine]
Effectiveness against Acanthamoeba among contact lens disinfectants (Acanthamoeba): most effective
